From ChEMBL document CHEMBL5715954, “Silencing c-Myc translation as a therapeutic strategy through targeting PI3Kδ and CK1ε in hematological malignancies” (Blood, 2017) come the findings set out here.

Structures are written as SMILES. Active and inactive are the calls of the source. No cut-off for these calls is given here. Some results are limits rather than exact numbers.

Test [1] addresses Casein kinase I isoform epsilon (Homo sapiens, UniProt P49674). In words: Inhibition of recombinant human full-length N-terminal GST-tagged CK1epsilon expressed in baculovirus infected Sf9 insect cells at 50 uM using casein as substrate measured after 60 mins by ADP-glo kinase assay relative to control. On the technique in general: ADP-Glo first removes unused ATP, then detects ADP through luciferase.

Test [2] concerns the target Myc proto-oncogene protein (Homo sapiens) (UniProt P01106). The test can be described thus: Inhibition of c-Myc in human LY7 cells assessed as reduction in E2F1 expression at 3 uM incubated for 24 hrs in presence of bortezomib by Western blot analysis. The format is cell-based. For orientation: A western blot detects proteins with antibodies after separation by electrophoresis.

The target in test [3] is T1, mTORC1 (Homo sapiens) (UniProt P42345+Q8N122+Q9BVC4). In words: Inhibition of mTORC1 in human LY7 cells assessed as reduction in 4E-BP1 phosphorylation at 3 uM measured after 24 hrs in presence of bortezomib by Western blot analysis. The format is cell-based.
T1 sequence (Q8N122 whole entry, looked up, other chains not shown): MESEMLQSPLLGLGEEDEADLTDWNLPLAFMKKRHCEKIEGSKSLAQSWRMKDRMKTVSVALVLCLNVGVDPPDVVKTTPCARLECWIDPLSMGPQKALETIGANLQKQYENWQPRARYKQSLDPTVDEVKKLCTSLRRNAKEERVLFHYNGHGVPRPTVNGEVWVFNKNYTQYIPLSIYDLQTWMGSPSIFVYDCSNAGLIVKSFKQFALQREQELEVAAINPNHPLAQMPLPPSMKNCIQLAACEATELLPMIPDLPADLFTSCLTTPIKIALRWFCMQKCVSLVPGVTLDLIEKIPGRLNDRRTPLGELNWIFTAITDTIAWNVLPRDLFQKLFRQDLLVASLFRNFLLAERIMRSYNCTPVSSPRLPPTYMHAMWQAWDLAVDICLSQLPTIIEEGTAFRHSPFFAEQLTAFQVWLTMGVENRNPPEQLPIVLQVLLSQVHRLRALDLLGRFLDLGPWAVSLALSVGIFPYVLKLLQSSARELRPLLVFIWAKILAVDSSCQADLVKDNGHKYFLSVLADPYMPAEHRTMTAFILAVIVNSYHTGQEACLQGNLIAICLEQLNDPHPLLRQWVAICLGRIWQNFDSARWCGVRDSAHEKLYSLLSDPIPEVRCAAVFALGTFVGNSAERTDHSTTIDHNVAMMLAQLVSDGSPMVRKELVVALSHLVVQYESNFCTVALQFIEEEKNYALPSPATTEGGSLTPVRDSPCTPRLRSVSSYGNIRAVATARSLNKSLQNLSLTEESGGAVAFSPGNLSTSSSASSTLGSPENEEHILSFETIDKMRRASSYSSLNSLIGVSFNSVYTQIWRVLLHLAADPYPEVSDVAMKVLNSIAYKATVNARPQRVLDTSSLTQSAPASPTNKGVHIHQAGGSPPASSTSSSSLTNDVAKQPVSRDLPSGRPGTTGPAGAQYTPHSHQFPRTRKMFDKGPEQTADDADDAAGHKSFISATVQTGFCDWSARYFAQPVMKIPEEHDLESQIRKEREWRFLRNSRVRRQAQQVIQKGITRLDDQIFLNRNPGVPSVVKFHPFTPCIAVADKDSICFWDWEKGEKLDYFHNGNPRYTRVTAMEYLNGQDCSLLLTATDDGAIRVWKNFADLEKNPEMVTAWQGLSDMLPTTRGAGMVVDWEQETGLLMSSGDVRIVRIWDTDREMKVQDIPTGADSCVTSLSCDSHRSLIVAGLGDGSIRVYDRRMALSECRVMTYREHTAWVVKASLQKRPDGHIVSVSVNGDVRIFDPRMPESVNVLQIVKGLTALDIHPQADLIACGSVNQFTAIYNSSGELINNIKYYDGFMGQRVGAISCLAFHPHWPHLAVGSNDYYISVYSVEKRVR
T1 sequence (Q9BVC4 whole entry, looked up, other chains not shown): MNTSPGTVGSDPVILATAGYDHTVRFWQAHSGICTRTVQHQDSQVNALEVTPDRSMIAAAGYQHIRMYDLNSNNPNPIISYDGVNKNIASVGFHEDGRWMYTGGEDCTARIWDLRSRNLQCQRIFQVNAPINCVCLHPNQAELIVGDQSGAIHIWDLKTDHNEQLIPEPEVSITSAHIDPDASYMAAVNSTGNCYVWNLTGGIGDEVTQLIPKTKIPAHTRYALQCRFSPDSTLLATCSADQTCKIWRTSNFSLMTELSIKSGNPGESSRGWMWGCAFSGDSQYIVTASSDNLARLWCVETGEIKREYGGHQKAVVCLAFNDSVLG
Test [4] addresses T1, mTORC1 (Homo sapiens). In words: Inhibition of mTORC1 in human CLL cells assessed as reduction in 4E-BP1 phosphorylation at 5 uM measured after 24 hrs in presence of bortezomib by Western blot analysis. The conditions noted are these: CLL cell. The format is cell-based.
Another test deals with OCI-Ly10. In words: Induction of apoptosis in human LY10 cells assessed as increase in cleaved-PARP expression at 3 uM measured after 24 hrs in presence of bortezomib by Western blot analysis. The format is functional, cell-based.
In test [5] the target is T1, mTORC1 (Homo sapiens). The test can be described thus: Inhibition of mTORC1 in human PF-382 cells assessed as reduction in 4E-BP1 phosphorylation at 5 uM measured after 24 hrs in presence of bortezomib by Western blot analysis. The format is cell-based.
A further test deals with CLL cell. The test can be described thus: Induction of apoptosis in human CLL cells assessed as increase in cleaved-PARP expression at 5 uM measured after 24 hrs in presence of bortezomib by Western blot analysis. The format is functional, cell-based.
The target of test [6] is T1, mTORC1 (Homo sapiens). The test can be described thus: Inhibition of mTORC1 in human OCILY7 cells transfected with empty vector assessed as reduction in endogenous c-Myc expression at 3 to 5 uM incubated for 24 hrs in presence of carfilzomib by Western blot analysis. The format is cell-based. The conditions noted are these: dose 3-5 µM.
In test [7] the target is T1, mTORC1 (Homo sapiens). In words: Inhibition of mTORC1 in human NCI-H929 cells assessed as reduction in c-Myc expression at 5 uM measured after 24 hrs in presence of carfilzomib by Western blot analysis. The format is cell-based.
For test [8], the target named is Myc proto-oncogene protein (Homo sapiens) (UniProt P01106). In words: Inhibition of c-Myc in human LY7 cells assessed as reduction in eIF4B expression at 3 uM incubated for 24 hrs in presence of carfilzomib by Western blot analysis. The format is cell-based.
Myc proto-oncogene protein (Homo sapiens), sequence (P01106 whole entry): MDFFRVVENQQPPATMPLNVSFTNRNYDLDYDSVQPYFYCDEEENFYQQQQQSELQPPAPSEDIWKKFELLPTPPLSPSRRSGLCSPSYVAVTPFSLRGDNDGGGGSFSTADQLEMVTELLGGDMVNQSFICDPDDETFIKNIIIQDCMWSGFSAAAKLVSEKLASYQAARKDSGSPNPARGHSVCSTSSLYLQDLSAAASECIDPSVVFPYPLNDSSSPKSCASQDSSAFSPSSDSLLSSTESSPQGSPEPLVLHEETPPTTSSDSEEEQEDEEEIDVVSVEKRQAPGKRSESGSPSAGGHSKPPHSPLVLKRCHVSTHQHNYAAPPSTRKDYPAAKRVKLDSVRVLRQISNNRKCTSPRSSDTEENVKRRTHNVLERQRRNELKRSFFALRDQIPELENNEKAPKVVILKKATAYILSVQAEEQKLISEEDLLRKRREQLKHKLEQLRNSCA
Test [9] has as its system LY7. In words: Inhibition of PI3Kdelta/CK1epsilon in human LY7 cells assessed as reduction in 4E-BP1 phosphorylation at 25 uM incubated for 24 hrs by Western blot analysis. The format is cell-based.
The subject of test [10] is OCI-Ly7. In words: Cytotoxicity against human OCILY7 cells transfected with c-Myc-expressing plasmid (M+) assessed as reduction in cell viability at 7.5 to 25 uM incubated for 24 hrs by cell-titer glo assay. The format is functional, cell-based. The conditions noted are these: dose 7.5-25 µM.
The subject of the next test is NCI-H929. In words: Cytotoxicity against human NCI-H929 cells transduced with an eIF4E-overexpressing plasmid assessed as reduction in cell viability at 5 uM incubated for 24 hrs in presence of carfilzomib by cell-titer glo assay. The format is functional, cell-based.
Test [11] addresses T1, mTORC1 (Homo sapiens). In words: Inhibition of mTORC1 in human NCI-H929 cells transduced with an eIF4E-overexpressing plasmid assessed as reduction in eIF4E expression at 5 uM incubated for 24 hrs in presence of carfilzomib by Western blot analysis. The format is cell-based.
Test [12] has as its target Myc proto-oncogene protein (Homo sapiens) (UniProt P01106). In words: Inhibition of c-Myc in human LY10 cells assessed as reduction in eIF4B expression at 3 uM incubated for 24 hrs in presence of carfilzomib by Western blot analysis. The format is cell-based.
The target in test [13] is T1, mTORC1 (Homo sapiens). In words: Inhibition of mTORC1 in human LY7 cells assessed as reduction in c-Myc mRNA expression at 3 uM measured after 24 hrs in presence of carfilzomib. The format is cell-based.
For test [14], the target named is T1, mTORC1 (Homo sapiens). The test can be described thus: Inhibition of mTORC1 in human NCI-H929 cells transduced with an eIF4E-overexpressing plasmid assessed as reduction in c-Myc expression at 5 uM incubated for 24 hrs in presence of carfilzomib by Western blot analysis. The format is cell-based.
Test [15] has as its target T2, Phosphatidylinositol 4,5-bisphosphate 3-kinase catalytic subunit delta isoform (Homo sapiens) (UniProt O00329).
T2 sequence (whole entry): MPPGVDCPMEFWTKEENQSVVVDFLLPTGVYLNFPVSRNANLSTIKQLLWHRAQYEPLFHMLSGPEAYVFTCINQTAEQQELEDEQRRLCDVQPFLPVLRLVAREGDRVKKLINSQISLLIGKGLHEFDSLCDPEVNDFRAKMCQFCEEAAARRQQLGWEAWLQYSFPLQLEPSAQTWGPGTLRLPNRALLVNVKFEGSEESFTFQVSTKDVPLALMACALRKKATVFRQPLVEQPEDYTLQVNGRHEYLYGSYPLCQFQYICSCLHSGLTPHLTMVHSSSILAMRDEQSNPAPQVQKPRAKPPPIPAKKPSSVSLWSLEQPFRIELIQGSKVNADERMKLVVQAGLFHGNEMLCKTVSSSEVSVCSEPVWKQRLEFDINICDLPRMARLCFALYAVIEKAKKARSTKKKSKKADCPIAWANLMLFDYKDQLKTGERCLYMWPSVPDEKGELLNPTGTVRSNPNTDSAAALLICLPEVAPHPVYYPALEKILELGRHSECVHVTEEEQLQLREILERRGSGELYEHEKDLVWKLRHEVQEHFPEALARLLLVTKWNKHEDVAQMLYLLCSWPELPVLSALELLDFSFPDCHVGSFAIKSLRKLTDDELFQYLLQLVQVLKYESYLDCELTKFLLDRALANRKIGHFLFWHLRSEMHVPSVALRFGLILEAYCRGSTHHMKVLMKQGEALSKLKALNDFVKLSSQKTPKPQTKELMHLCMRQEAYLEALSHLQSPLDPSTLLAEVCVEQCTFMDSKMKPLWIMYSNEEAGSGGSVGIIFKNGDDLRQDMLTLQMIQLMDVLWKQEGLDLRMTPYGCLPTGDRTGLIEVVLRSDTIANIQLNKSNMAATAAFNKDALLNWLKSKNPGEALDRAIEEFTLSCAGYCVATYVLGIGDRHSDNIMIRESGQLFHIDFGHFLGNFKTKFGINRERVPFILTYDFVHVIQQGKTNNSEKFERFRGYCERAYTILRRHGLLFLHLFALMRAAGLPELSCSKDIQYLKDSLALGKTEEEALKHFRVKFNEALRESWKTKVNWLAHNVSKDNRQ
The test can be described thus: Inhibition of PI3Kdelta in human MOLT-4 cells assessed as reduction in AKT phosphorylation at S473 residue measured after 4 hrs. The format is cell-based. The conditions noted are these: dose 10-10000 nM.

Test [16] deals with LY7. The test can be described thus: Inhibition of PI3Kdelta/CK1epsilon in human LY7 cells assessed as reduction in c-Myc expression at 15 to 50 uM measured after 24 hrs by Western blot analysis. The format is cell-based. The conditions noted are these: dose 15-50 µM.
In test [17] the test system is OCI-Ly7. In words: Cytotoxicity against human OCILY7 cells transfected with empty vector assessed as reduction in cell viability at 7.5 to 25 uM incubated for 24 hrs by cell-titer glo assay. The format is functional, cell-based. The following applies: dose 7.5-25 µM.

Casein kinase I isoform epsilon, sequence (P49674 whole entry, looked up, canonical isoform): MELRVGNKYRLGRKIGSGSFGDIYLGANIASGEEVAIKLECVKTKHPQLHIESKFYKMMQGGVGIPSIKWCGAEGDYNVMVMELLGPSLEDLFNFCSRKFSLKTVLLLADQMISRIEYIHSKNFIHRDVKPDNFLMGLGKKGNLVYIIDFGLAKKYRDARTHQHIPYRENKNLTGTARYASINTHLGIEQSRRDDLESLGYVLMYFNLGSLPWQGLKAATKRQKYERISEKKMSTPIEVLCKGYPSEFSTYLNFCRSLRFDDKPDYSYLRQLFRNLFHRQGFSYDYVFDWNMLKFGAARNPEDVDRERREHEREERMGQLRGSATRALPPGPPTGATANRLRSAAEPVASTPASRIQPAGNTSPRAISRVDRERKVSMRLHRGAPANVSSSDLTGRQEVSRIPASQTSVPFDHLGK

Consider `CC[C@H](Nc1ncnc2[nH]cnc12)c1nc2cccc(F)c2c(=O)n1-c1ccccc1`, for which the inhibition (in general, the percentage by which the read-out fell short of the control) in [1] is < 50%. For the same compound, the inhibition result (in test [2]; on mTORC1 (Homo sapiens) [3]; at mTORC1 (Homo sapiens) [4]; at mTORC1 (Homo sapiens) [5]) was “inactive” throughout. In addition, the result in the test on OCI-Ly10 and in the test on CLL cell was Active.

`CC(C)Oc1ccc(-c2nn([C@@H](C)c3oc4ccc(F)cc4c(=O)c3-c3cccc(F)c3)c3ncnc(N)c23)cc1F` [UMBRALISIB]: the inhibition entry (on mTORC1 (Homo sapiens) [6]; on mTORC1 (Homo sapiens) [7]; in [8]; with LY7 [9]; in [12]; in the test on LY7 [16]) was “Active” in each case. The outcome in the test with OCI-Ly7 [10] and with NCI-H929 was inactive. The inhibition result on mTORC1 (Homo sapiens) [11], on mTORC1 (Homo sapiens) [13] and on mTORC1 (Homo sapiens) [14] was “inactive” throughout. Further, the inhibition entry in [15] was “Dose-Dependent Effect”. The outcome in the test on OCI-Ly7 [17] was Active.
